Reference: publication PMC11239005, “Preclinical studies of RA475, a guanidine-substituted spirocyclic candidate RPN13/ADRM1 inhibitor for treatment of ovarian cancer” (PLOS ONE, 2024)

Legend:
[1] = Human plasma protein binding, equilibrium dialysis; type: in vitro ADME; conditions: pH 7.4, dialysis 5 h
Method: (§1) The assay was performed in a multiple-use 96-well dialysis unit (HTD96b dialyzer). Each individual well unit consisted of 2 chambers separated by a vertically aligned dialysis membrane of predetermined pore size (MWCO 12–14 kDa). 120 μL of non-diluted plasma spiked with the compound (1 μM, final DMSO concentration 1%) was added to one chamber, and the same volume of PBS buffer pH 7.4 to the other chamber. The HTD96b dialyzer was covered with adhesive sealing film and incubated 5 h at 37°C while shaking at 100 rpm. For sample preparation, an aliquot of the contents of each chamber was mixed with the same volume of the blank opposite matrix. In order to define non-specific loss of the compound during this assay, a standard solution was created by mixing an aliquot of spiked plasma with blank buffer without dialysis. Two aliquots of the standard solution were incubated at 37°C, shaking at 100 rpm for 5 h (recovery samples). The other two aliquots were immediately diluted with acetonitrile and stored at 4°C until analysis (stability samples). All samples were diluted 5-fold with internal standard diluted in 100% methanol with subsequent plasma proteins sedimentation by centrifuging at 6000 rpm for 5 minutes. Supernatants were analyzed using LC-MS/MS. The percentage of plasma protein bound compound, recovery and stability were calculated using following equations. […]

[2] = Mouse plasma protein binding, equilibrium dialysis; type: in vitro ADME; conditions: pH 7.4, dialysis 5 h
Method: as §1

[3] = system: spontaneous genetically-engineered peritoneal tumor (shp53, AKT, c-Myc); experiment: Spontaneous GEMM of primary peritoneal/ovarian cancer; type: in vivo, mouse; conditions: C57BL/6
Method: To induce IP tumor formation in immunocompetent mice, oncogenes (shp53, AKT, c-Myc), luciferase and the Sleeping Beauty (SB) transposase (10 μg/plasmid) were diluted in 500 μL of PBS and injected IP into female C57BL/6 mice. The mice were anesthetized by intramuscular injection of 50–100μL of a cocktail of ketamine 16 mg/mL / 3 mg/mL xylazine. The plasmid-injected mice were electroporated (EP) by the BTX ECM 830 square wave EP generator (BTX) (5 pulses, 200 V for 100 ms/pulse, 100 ms intervals between each pulse) with the caliper electrode (BTX) held across the waist of mouse. The mice were followed by IVIS imaging weekly for tracking tumor growth. The mice were sacrificed when the bioluminescence signal reached 10^9 photons/sec/cm^2/sr, or had enlarged abdomens due to the production of ascites, or had health conditions and/or criteria under which early euthanasia was required by the protocol. To track peritoneal tumor growth, bioluminescence imaging was performed by the IVIS Spectrum2000 (PerkinElmer) as the plasmid expressing SB transposase also produces luciferase. Briefly, the mice were injected IP with D-luciferin (GoldBio). After 10 min, the mice were anesthetized with isoflurane, and imaged by the IVIS Spectrum under the auto exposure mode. Bioluminescence in the peritoneal region was quantified as total photon counts/sec/cm^2/sr using Living Image 3.0 Software (Perkin Elmer).
GEMM better mimic the spontaneous development of cancers in an immune competent host than transplantable tumor lines. Female C57BL/6 mice were co-injected IP with sleeping beauty vector and plasmids expressing carrying shp53, AKT, c-Myc and firefly luciferase genes, followed by electroporation (EP) to deliver these plasmid DNA into the peritoneal cavity cells wherein they integrate randomly into their genome. After 7 days mice were imaged by IVIS200 for bioluminescence and randomized. Four groups (n = 8) were treated IP with vehicle or RA475 (40mg/kg, IP, every 3 days) or Cisplatin (5 mg/Kg, once a week) or the combination of RA475 (40mg/Kg, IP, every 3 days) plus Cisplatin (5 mg/Kg, once a week). […] While cisplatin reduced tumor growth, it led to severe toxicity including weight loss >20% that was not evident with RA475 alone.
Fig 7 Administration of RA475, cisplatin or the combination to mice bearing spontaneous, genetically-engineered model ovarian/peritoneal cancer. Female C57BL/6 mice were co-injected IP with sleeping beauty vector and plasmids expressing carrying shp53, AKT, c-Myc and firefly luciferase genes, followed by electroporation (EP) to deliver these plasmid DNA into the peritoneal cavity cells wherein they integrate randomly into their genome. After 7 days mice were imaged by Xenogen IVIS200 for bioluminescence and randomized. […]

[4] = RA475 40 mg/kg IP every 3 days (12 doses), cisplatin 5 mg/Kg weekly (5 doses alone, 3 in combination)

Cl.Cl.N#Cc1ccc(/C=C2/C(=O)/C(=C/c3ccc(C#N)cc3)C23CCN(C(=N)N)CC3)cc1 [RA475, 1,3-bis((E)-4-cyanobenzylidene)-2-oxo-7-azaspiro[3.5]nonane-7-carboximidamide dihydrochloride]
fraction unbound at 5 h, 1 μM [1]: 0.009 | fraction unbound at 5 h, 1 μM [2]: < 0.01 | survival [3, 4]: extended survival to a similar extent as cisplatin alone | tumor burden by bioluminescence [3, 4]: delayed but did not significantly reduce tumor burden | weight loss ([3]; RA475 40 mg/kg IP every 3 days, cisplatin 5 mg/Kg weekly): not evident
